From patent publication US20250034196A1, “ESTER DERIVATIVES OF N4-HYDROXYCYTIDINE AND USE THEREOF” (priority 2021, published 2025)

What was measured:
[1] = in vivo; set-up: species or system Beagle Dogs; conditions: dog, po, 10 mg/kg; for AUC(0-inf): AUCINF of EX-1/NHC/CH2018; for AUC(0-t): AUClast of EX-1/NHC/CH2018; for Cmax: Cmax of EX-1/NHC/CH2018; for half-life: T1/2 of EX-1/NHC/CH2018; for Tmax: Tmax of EX-1/NHC/CH2018
Procedure: Example 174: Pharmacokinetic Study of EX-2 (CH2101), Molnupiravir (CH2017) and its Metabolite NHC (CH2018) Following a Single PO Administration of EX-2 (CH2101) or Molnupiravir (CH2017) in Male and Female Beagle Dogs
Both test compounds were prepared in 1% methyl cellulose (400 cps, SIGMA, SLCF9694) solution in purified water.
A total of 6 male+6 female Beagle Dogs, approximately 7-13 kg of bodyweight, were originally purchased from Marshall Biotechnology Co., Ltd. The animals were fasted overnight prior to dosing and food was re-provided after 4 hours post dosing.
The animals were restrained manually, and approximately 1 mL of blood at each time point was collected into pre-cooled EDTA-K2 tubes via cephalic or saphenous veins. Blood samples were centrifuged at 4° C. (4000 rpm. 5 min) to obtain plasma within 30 min after sample collection. All samples were stored at approximately −80° C. until analysis. The backup samples will be discarded after the in vivo experiment has been completed for two months unless requested.

[2] = Microsome stability; type: in vitro ADME, Monkey; conditions: monkey, microsomes, pH 7.4
Procedure: (§1) Preparation of Solutions: Stock solution (10 mM) of each of test compounds was prepared in DMSO. The stock solution for each compound was then diluted into 100 μM with acetonitrile.
(§2) Microsome Incubations: Incubation mixtures were prepared in a total volume of 200 μL with final component concentrations as follows: 0.1M PBS (pH 7.4), NADPH (2 mM) and liver microsomes (0.2 mg/mL) as well as test compound (1 μM) or Molnupiravir (1 μM) as a positive control, wherein the NADPH was added after a 5-min preincubation of all other components at 37° C. Pipette-mixed to achieve a homogenous suspension and immediately transferred 20 μL incubate as a 0 min sample to wells in a “Quenching” plate followed by adding 200 μL of acetonitrile with metolazone as IS and pipette-mixing. At 2, 5, 10, and 45 min, pipette-mixed the incubate and serially transfer samples of 20 μL incubate per time point to wells in a separate “Quenching” plate followed by adding 200 μL of acetonitrile with metolazone as IS and pipette-mixing.
(§3) Sample Analysis: The 96-well plate was centrifuged at 6000 g for 10 min. The supernatant was injected onto the LC-MS/MS system for analysis.

[3] = in vitro; type: in vitro ADME; conditions: microsomes; for half-life at 1 µM: pH 7.4
Procedure: as §1, §2, §3

[4] = in vitro; type: in vitro ADME; conditions: plasma
Procedure: as §1
Plasma Incubations: Plasma incubations were conducted in duplicate in 96-well plate at 37° C. Plasma was prewarmed in a total volume of 198 μL for 5 min at 37° C., then added 2 μL of 100 μM test compound into an incubation well containing plasma, pipette-mixed to achieve a homogenous suspension and immediately transferred 20 μL incubate as a 0 min sample to wells in a “Quenching” plate followed by adding 200 μL of acetonitrile with metolazone as internal standard (IS) and pipette-mixing. At 2, 5, 60, and 90 min, pipette-mixed the incubate and serially transfer samples of 20 μL incubate per time point to wells in a separate “Quenching” plate followed by adding 200 μL of acetonitrile with metolazone as IS and pipette-mixing.
as §3

[5] = tested on: SARS-CoV-2, Hongkong strain; type: in vivo, K18 hACE2 transgenic mice
[6] = Remdesivir 25 mpk SC twice daily

O=c1nc(NO)ccn1[C@@H]1O[C@H](CO)[C@@H](O)[C@H]1O [EX-1/NHC/CH2018, NHC]
AUC(0-inf) ([1]; both sexes, beagle): 9680 ng·h/mL
AUC(0-t) ([1]; both sexes, beagle): 9580 ng·h/mL
Cmax ([1]; both sexes, beagle): 4780 ng/mL
half-life ([1]; both sexes, beagle): 227 min
Tmax ([1]; both sexes, beagle): 52.5 min
AUCmale/female of EX-1/NHC/CH2018 ([1]; both, Beagle): 158%
AUCINF of EX-1/NHC/CH2018 ([1]; female, beagle): 7683 ng·h/mL
AUClast of EX-1/NHC/CH2018 ([1]; female, beagle): 7632 ng·h/mL
Cmax of EX-1/NHC/CH2018 ([1]; female, beagle): 3940 ng/mL
T1/2 of EX-1/NHC/CH2018 ([1]; female, beagle): 63.6 min
AUC(0-inf) ([1]; female, beagle): 7310 ng·h/mL
AUC(0-t) ([1]; female, beagle): 7220 ng·h/mL
Cmax ([1]; female, beagle): 4550 ng/mL
half-life ([1]; female, beagle): 76.8 min
Tmax ([1]; female, beagle): 60 min
AUCINF of EX-1/NHC/CH2018 ([1]; male, beagle): 11046 ng·h/mL
AUClast of EX-1/NHC/CH2018 ([1]; male, beagle): 10957 ng·h/mL
Cmax of EX-1/NHC/CH2018 ([1]; male, beagle): 5240 ng/mL
T1/2 of EX-1/NHC/CH2018 ([1]; male, beagle): 343 min
Tmax of EX-1/NHC/CH2018 ([1]; male, beagle): 30 min
AUC(0-inf) ([1]; male, beagle): 12700 ng·h/mL
AUC(0-t) ([1]; male, beagle): 12500 ng·h/mL
Cmax ([1]; male, beagle): 5380 ng/mL
half-life ([1]; male, beagle): 425 min
Tmax ([1]; male, beagle): 60 min

CC(C)C(=O)ONc1ccn([C@@H]2O[C@H](CO)[C@@H](O)[C@H]2O)c(=O)n1 [EX-3]
half-life at 1 µM [2]: 4.4 min
half-life at 1 µM ([3]; dog): 33.8 min
half-life at 1 µM ([3]; human): 13.5 min
half-life at 1 µM ([3]; mouse): 6.8 min
half-life at 1 µM ([3]; rat): 46.6 min
half-life at 1 µM ([4]; dog): 21.2 min
half-life at 1 µM ([4]; human): 2.8 min
half-life at 1 µM ([4]; monkey): 3.2 min
half-life at 1 µM ([4]; mouse): 0.6 min
half-life at 1 µM ([4]; rat): 25.9 min

O=C(ONc1ccn([C@@H]2O[C@H](CO)[C@@H](O)[C@H]2O)c(=O)n1)C1CC1 [EX-15]
half-life at 1 µM [2]: 25 min
half-life at 1 µM ([3]; dog): 132 min
half-life at 1 µM ([3]; human): 67.3 min
half-life at 1 µM ([3]; mouse): 15.4 min
T1/2 ([3]; rat): ∞
half-life at 1 µM ([4]; dog): 109 min
half-life at 1 µM ([4]; human): 5.8 min
half-life at 1 µM ([4]; monkey): 16.5 min
half-life at 1 µM ([4]; mouse): 5.2 min
half-life at 1 µM ([4]; rat): 88.9 min

COC(C)(C)C(=O)ONc1ccn([C@@H]2O[C@H](CO)[C@@H](O)[C@H]2O)c(=O)n1 [EX-53]
half-life at 1 µM [2]: 7.3 min
half-life at 1 µM ([3]; dog): 87.5 min
half-life at 1 µM ([3]; human): 86.6 min
half-life at 1 µM ([3]; mouse): 17.1 min
half-life at 1 µM ([3]; rat): 70.5 min
half-life at 1 µM ([4]; dog): 156 min
half-life at 1 µM ([4]; human): 4.8 min
half-life at 1 µM ([4]; monkey): 9.8 min
half-life at 1 µM ([4]; mouse): 3.1 min
half-life at 1 µM ([4]; rat): 94.3 min

CCC(CC)COC(=O)[C@H](C)N[P@](=O)(OC[C@H]1O[C@@](C#N)(c2ccc3c(N)ncnn23)[C@H](O)[C@@H]1O)Oc1ccccc1 [Remdesivir]
Survival proportions ([5]; 14-day study, twice daily days 0-6, CH2101 450 mg/kg PO, Remdesivir 25 mg/kg SC): 0%
Body weight loss observed from day [5, 6]: 2 days
Gross clinical symptoms appear from day [5, 6]: 6 days
Max clinical symptom score (mean value) [5, 6]: 2
Prolonged survival time ([5]; compared with vehicle group (group 1), Remdesivir 25 mg/kg SC): 20%
Virus titer in lung, comparison with Remdesivir group (mean difference) ([5]; day 5): 2.47
Virus titer in lung ([5]; day 5, plaque assay, mean, twice daily days 0-4, CH2101 450 mpk PO, Remdesivir 25 mpk SC): 5.11 Log 10 plaque#/g lung
Virus titer in lung, mean difference vs. group 1 (Vehicle group) ([5]; day 5, CH2101 450 mpk PO, Remdesivir 25 mpk SC): 0.83 Log
Body weight change ([5]; day 6, normalized to day 0, Remdesivir 25 mpk SC twice daily): −13.6%
Median survival time ([5]; twice daily days 0-6, CH2101 450 mg/kg PO, Remdesivir 25 mg/kg SC): 6 days
